# Biological target: T1, LdtR (Candidatus Liberibacter asiaticus, UniProt A0ABN4AZS1)
# T1 construct: gene WSI_01095
# Assay type: binding
# Details: promoters of CLIBASIA_02120 and CLIBASIA_03520; pH 7.2, 150 mM KCl, 10 mM MgCl2, 37 °C
row,Structure (SMILES),"EMSA, disruption of LdtR binding to promoter DNA"
1,CCc1oc2ccccc2c1C(=O)c1cc(Br)c(O)c(Br)c1 [benzbromarone],benzbromarone and phloretin disrupted the binding of LdtR to both promoters (Fig. S2)
2,O=C(CCc1ccc(O)cc1)c1c(O)cc(O)cc1O [phloretin],benzbromarone and phloretin disrupted the binding of LdtR to both promoters (Fig. S2)
